{"source": "patent US20050013914A1", "about": "“Method of sustaining aroma and use thereof” (priority 2001, published 2005)", "assay_type_in_all_cases": "physicochemical", "key": {"[1]": {"assay": "Adsorption of liquid ethanol or acetic acid on saccharide powder (Example C-1)", "conditions": "until mixture did not keep a powder form; for Amount of Adsorbed Acetic Acid: acetic acid adsorbed on 1 g of saccharide; for Amount of Adsorbed Ethanol: ethanol adsorbed on 1 g of saccharide", "description": "CTS crystalline pentahydrate, prepared by the method described in Example B-3, CTS crystalline monohydrate, prepared by the method described in Example B-4, CTS crystalline anhydrate, prepared by the method described in Example B-5, or CTS amorphous anhydrate prepared by the method described in Example B-6, was used for preparation of aroma-retaining material. “ISOELEAT P™”, a branched cyclodextrin commercialized by Maruha corporation, Tokyo, Japan, anhydrous trehalose prepared by the method described in Japanese Patent Kokai No. 111,284/97, “PINEFIBRE™”, a dextrin commercialized by Matsutani Chemical Industries Co., Ltd., Tokyo, Japan, or soluble starch in a reagent grade commercialized by Katayama Chemical Industries, Co., Ltd., Tokyo, Japan, was dried in vacuo at 80° C. for 16 hours as control saccharides. […] The resulting mixture was weighed. The weight of ethanol or acetic acid was calculated by subtracting the pre-measured saccharide weight. The weight of ethanol or acetic acid adsorbed on 1 g of each saccharide was in Table 1."}, "[2]": {"assay": "Effect of suppressing volatilization: retained ethanol by gas chromatography (Example C-2)", "conditions": "for Amount of Retained Ethanol: per 1 g of material", "protocol": "About 5 g of an ethanol-retaining material with CTS crystalline anhydrate, branched cyclodextrin, anhydrous trehalose, or dextrin, prepared freshly by the method described in Example C-1, was taken into a 20 ml volume of glass vials. The vials were placed under normal pressure and room temperature for the purpose of evaporating ethanol. The amount of retained ethanol in samples freshly prepared, or after two hours later, four hours later, eight hours later, or 24 hours later, was measured by dissolving each sample in about 10 ml of water, diluting it with water to give a volume of 100 ml in a glass measuring flask, and measuring the amount of ethanol dissolved in the resulting aqueous solution by a gas chromatography. In the case of a soluble starch as a sample, additional centrifuging was carried out after diluting up to 100 ml. The above gas chromatography was carried out using “GC-14B” (a gas liquid chromatography commercialized by Shimazu Corporation, Kyoto, Japan) equipped with “TC-5” (a capillary column sized 0.53 mm in diameter and 15 m in length, commercialized by GL Sciences Inc., Tokyo, Japan). The amount of retained ethanol per 1 g of each material is in Table 2.\nIn this table, each value in the parentheses means a relative percentage to the ethanol amount (100%) just after its preparation."}, "[3]": {"assay": "Adsorption and 10-day retention of lavender oil, citronellol or phenethyl alcohol on saccharides (Example C-4)", "conditions": "for Amount of the Adsorbed Substance: freshly prepared sample; for Relative Amount of the Retained Substance: preserved at 25° C. for 10 days vs freshly prepared", "description": "The following example is a test to confirm the effect of CTS crystalline hydrate, CTS crystalline anhydrate, or CTS amorphous anhydrate on retaining, as an aromatic substance, lavender oil, citronellol, or phenethyl alcohol. CTS crystalline pentahydrate prepared by the method described in Example B-3, CTS crystalline anhydrate in Example B-5, and CTS amorphous anhydrate in Example B-6 were used as the test saccharides “ISOELEAT P®”, a branched cyclodextrin commercialized by Maruha Corporation, Tokyo, Japan, was used as a control.\nIn the case of lavender oil, five parts by weight of each of the above saccharides were taken into a glass dish sized 90 mm in diameter and 20 mm in depth, admixed with one part by weight of lavender oil by stirring. Lavender oil was measured by the method described as follows; admixing 2 ml of diethyl ether with 1 g of each of the above samples freshly prepared or after preserved at 25° C. for 10 days; measuring the extracted lavender oil by gas chromatography using “GC-14B” (a gas chromatography commercialized by Shimazu corporation, Kyoto, Japan) equipped with “TC-Wax” (a capillary column sized 0.53 mm in diameter and 25 m in length commercialized by GL Sciences Inc., Tokyo, Japan.\nIn the case of citronellol or phenethyl alcohol, five parts by weight of each of the above saccharides were taken into a glass dish sized 90 mm in diameter and 20 mm in depth, admixed with one part by weight of citronellol or phenethyl alcohol, and mixed by stirring. The adsorbed citronellol or phenethyl alcohol was measured by admixing 2 ml of diethyl ether with 1 g of each of the above sample freshly prepared or after preserved at 25° C. for 10 days, and measuring the extracted lavender oil by gas chromatography using “GC-14B” (a gas chromatography device commercialized by Shimazu corporation, Kyoto, Japan) equipped with “DB-5” (a capillary column sized 0.25 mm in diameter and 30 m in length commercialized by GL Sciences Inc., Tokyo, Japan).\nThe amount of the retained aromatic substance in each sample was calculated using the following formula, and the results were shown in Table 4.\nFormula: Relative amount of the retained Substance (%)={(an amount of aromatic substance in a sample preserved for 10 days)/(an amount of aromatic substance in a freshly prepared sample)}×100"}, "[4]": {"conditions": "2 h later, normal pressure, room temperature"}, "[5]": {"conditions": "4 h later, normal pressure, room temperature"}, "[6]": {"conditions": "8 h later, normal pressure, room temperature"}, "[7]": {"conditions": "24 h later, normal pressure, room temperature"}, "[8]": {"conditions": "citronellol, listed as Sample 2"}, "[9]": {"conditions": "lavender oil, listed as Sample 2"}, "[10]": {"conditions": "phenethyl alcohol, listed as Sample 2"}}, "data": [{"smiles": "OCC1OC2OCC3O[C@H](O[C@H]4C(O)C(CO)OC(OCC5O[C@H](O[C@@H](C1O)C2O)C(O)C(O)[C@@H]5O)C4O)C(O)C(O)[C@@H]3O", "note": "(some centres unmarked) [CTS crystalline anhydrate]", "values": [{"measurement": "Amount of Adsorbed Acetic Acid", "setting": "[1]", "value": 0.47, "unit": "g"}, {"measurement": "Amount of Adsorbed Ethanol", "setting": "[1]", "value": 0.50, "unit": "g"}, {"measurement": "Relative percentage to the ethanol amount just after preparation", "setting": "[2]; 2 h later", "value": "(101%)"}, {"measurement": "Relative percentage to the ethanol amount just after preparation", "setting": "[2]; 4 h later", "value": "(87%)"}, {"measurement": "Relative percentage to the ethanol amount just after preparation", "setting": "[2]; 8 h later", "value": "(3%)"}, {"measurement": "Relative percentage to the ethanol amount just after preparation", "setting": "[2]; 24 h later", "value": "(2%)"}, {"measurement": "Relative percentage to the ethanol amount just after preparation", "setting": "[2]; freshly prepared", "value": "(100%)"}, {"measurement": "Amount of Retained Ethanol", "setting": "[2]; [4]", "value": 335, "unit": "mg"}, {"measurement": "Amount of Retained Ethanol", "setting": "[2]; [5]", "value": 290, "unit": "mg"}, {"measurement": "Amount of Retained Ethanol", "setting": "[2]; [6]", "value": 10, "unit": "mg"}, {"measurement": "Amount of Retained Ethanol", "setting": "[2]; [7]", "value": 5, "unit": "mg"}, {"measurement": "Amount of Retained Ethanol", "setting": "[2]; freshly prepared", "value": 333, "unit": "mg"}, {"measurement": "Adsorbing capability relative to branched cyclodextrin", "setting": "[3]; citronellol", "value": "about 1.2 fold"}, {"measurement": "Amount of the Adsorbed Substance", "setting": "[3]; citronellol", "value": 195, "unit": "mg/g saccharide"}, {"measurement": "Amount of the Adsorbed Substance", "setting": "[3]; [8]", "value": 195, "unit": "mg/g saccharide"}, {"measurement": "Relative Amount of the Retained Substance", "setting": "[3]; [8]", "value": 42, "unit": "%"}, {"measurement": "Adsorbing capacity relative to branched cyclodextrin", "setting": "[3]; lavender oil", "value": "about 1.3 fold"}, {"measurement": "Amount of the Adsorbed Substance", "setting": "[3]; lavender oil", "value": 190, "unit": "mg/g saccharide"}, {"measurement": "Amount of the Adsorbed Substance", "setting": "[3]; [9]", "value": 190, "unit": "mg/g saccharide"}, {"measurement": "Relative Amount of the Retained Substance", "setting": "[3]; [9]", "value": 12, "unit": "%"}, {"measurement": "Amount of the Adsorbed Substance", "setting": "[3]; phenethyl alcohol", "value": 190, "unit": "mg/g saccharide"}, {"measurement": "Amount of the Adsorbed Substance", "setting": "[3]; [10]", "value": 190, "unit": "mg/g saccharide"}, {"measurement": "Relative Amount of the Retained Substance", "setting": "[3]; [10]", "value": 16, "unit": "%"}]}, {"smiles": "OC[C@H]1O[C@H](O[C@H]2O[C@H](CO)[C@@H](O)[C@H](O)[C@H]2O)[C@H](O)[C@@H](O)[C@@H]1O", "note": "[Anhydrous trehalose, reference compound]", "values": [{"measurement": "Amount of Adsorbed Acetic Acid", "setting": "[1]", "value": 0.18, "unit": "g"}, {"measurement": "Amount of Adsorbed Ethanol", "setting": "[1]", "value": 0.25, "unit": "g"}, {"measurement": "Relative percentage to the ethanol amount just after preparation", "setting": "[2]; 2 h later", "value": "(51%)"}, {"measurement": "Relative percentage to the ethanol amount just after preparation", "setting": "[2]; 4 h later", "value": "(8%)"}, {"measurement": "Relative percentage to the ethanol amount just after preparation", "setting": "[2]; 8 h later", "value": "(4%)"}, {"measurement": "Relative percentage to the ethanol amount just after preparation", "setting": "[2]; 24 h later", "value": "(2%)"}, {"measurement": "Relative percentage to the ethanol amount just after preparation", "setting": "[2]; freshly prepared", "value": "(100%)"}, {"measurement": "Amount of Retained Ethanol", "setting": "[2]; [4]", "value": 103, "unit": "mg"}, {"measurement": "Amount of Retained Ethanol", "setting": "[2]; [5]", "value": 17, "unit": "mg"}, {"measurement": "Amount of Retained Ethanol", "setting": "[2]; [6]", "value": 8, "unit": "mg"}, {"measurement": "Amount of Retained Ethanol", "setting": "[2]; [7]", "value": 5, "unit": "mg"}, {"measurement": "Amount of Retained Ethanol", "setting": "[2]; freshly prepared", "value": 203, "unit": "mg"}]}]}
